Experimental data reported in patent US6713280B1, “Enhancement of peptide cellular uptake” (Thomas Jefferson University, priority 1999, dated 2004).
pEC50: −log10 of the molar value. Residues, ends and D or L forms follow the SMILES beside them. *: point of attachment. Decanoyl = CCCCCCCCCC(=O)*

How the values were obtained:
[1] = test system: HL-60 cells transfected with Bcl-2 to overexpress Bcl-2; experiment: DNA fragmentation apoptosis assay; type: cell-based, human; conditions: 50 μM, 2 hours, Bcl-2-transfected HL-60 cells, FIG. 6
[2] = molecular target: GST-Bcl-2 protein (Homo sapiens, UniProt P10415); experiment: Fluorescence polarization competition binding assay of decyl-SEQ ID NO:56 to GST-Bcl-2
GST-Bcl-2 protein, sequence (P10415 1-205 limits assumed): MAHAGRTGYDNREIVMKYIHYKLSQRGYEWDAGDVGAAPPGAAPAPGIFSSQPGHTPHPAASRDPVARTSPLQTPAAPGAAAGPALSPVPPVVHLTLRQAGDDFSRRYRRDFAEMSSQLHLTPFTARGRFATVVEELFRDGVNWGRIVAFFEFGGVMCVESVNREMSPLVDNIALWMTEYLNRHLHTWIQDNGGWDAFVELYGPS
Experimental: The binding equation proposed by Weinhold et al., J. Am. Chem. Soc. 114:9270-9275, 1992, was used to derive the dissociation constant KD of an inhibitor from petition inhibition curve, [formula]
The Ec50 for the Bcl-2 binding of decyl-SEQ ID NO:56 was 0.13 μM, indicating strong binding.
The binding of the peptide conjugate decyl-SEQ ID NO:56 to the Bcl-2 protein was assayed by the following competition assay. […] The following micromolar concentrations of decyl-K1285 were then incubated with the mixture for 30 minutes at 37° C. (0.005, 0.01, 0.02, 0.04 0.08 0.16 and 0.32).

[3] = molecular target: Bcl-2 protein (Homo sapiens, UniProt P10415); experiment: Fluorescence polarization competition binding against Flu-SEQ ID NO:30 (BH3 peptides); conditions: FIG. 3; for relative competition to Flu-SEQ ID NO:30 binding: comparison among BH3 peptides; for inhibition of Bcl-2 binding of Flu-SEQ ID NO:30: competition curve
Bcl-2 protein, sequence (P10415 whole entry): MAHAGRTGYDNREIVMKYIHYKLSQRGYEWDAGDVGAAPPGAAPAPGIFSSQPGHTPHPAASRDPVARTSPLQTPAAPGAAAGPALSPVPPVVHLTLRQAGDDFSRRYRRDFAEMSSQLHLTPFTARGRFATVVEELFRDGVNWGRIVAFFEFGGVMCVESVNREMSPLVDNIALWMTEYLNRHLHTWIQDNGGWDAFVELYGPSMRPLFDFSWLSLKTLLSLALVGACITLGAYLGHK

[4] = test system: Bcl-2-transfected HL-60 line; conditions: 50 μM (same concentration); cited from earlier work
[5] = test system: HL-60 cell line (parent line); conditions: 50 μM, parent HL-60 line; cited from earlier work

Row | Compound | DNA fragmentation (marker of apoptosis) [1] | inhibition of Bcl-2 binding of Flu-SEQ ID NO:30 [3] | further results
1 | KNLWAAQRYGRELRRMSDEFEGSFKGL [SEQ ID NO:56] | observed in the decyl-SEQ ID NO:56-treated cells only | – | –
2 | CCCCCCCCCC(=O)N[C@@H](CCCCN)C(=O)N[C@@H](CC(N)=O)C(=O)N[C@@H](CC(C)C)C(=O)N[C@@H](Cc1c[nH]c2ccccc12)C(=O)N[C@@H](C)C(=O)N[C@@H](C)C(=O)N[C@@H](CCC(N)=O)C(=O)N[C@@H](CCCNC(=N)N)C(=O)N[C@@H](Cc1ccc(O)cc1)C(=O)NCC(=O)N[C@@H](CCCNC(=N)N)C(=O)N[C@@H](CCC(=O)O)C(=O)N[C@@H](CC(C)C)C(=O)N[C@@H](CCCNC(=N)N)C(=O)N[C@@H](CCCNC(=N)N)C(=O)N[C@@H](CCSC)C(=O)N[C@@H](CO)C(=O)N[C@@H](CC(=O)O)C(=O)N[C@@H](CCC(=O)O)C(=O)N[C@@H](Cc1ccccc1)C(=O)N[C@@H](CCC(=O)O)C(=O)NCC(=O)N[C@@H](CO)C(=O)N[C@@H](Cc1ccccc1)C(=O)N[C@@H](CCCCN)C(=O)NCC(=O)N[C@@H](CC(C)C)C(=O)O [decyl-SEQ ID NO:56] (Decanoyl-KNLWAAQRYGRELRRMSDEFEGSFKGL-OH; C-terminus assumed) | DNA fragmentation was observed | – | pEC50 [2]: 6.89
3 | KKLSECLKRIGDELDS [SEQ ID NO:32] | – | clear dose-dependent inhibition | relative competition to Flu-SEQ ID NO:30 binding [3]: weaker activity
4 | NLWAAQRYGRELRRMSDEFEGSFKGL [SEQ ID NO:1] | – | clear dose-dependent inhibition | relative competition to Flu-SEQ ID NO:30 binding [3]: strongest competition
5 | CCCCCCCCCC(=O)O [decanoic acid, reference compound] | observed in the decyl-SEQ ID NO:56-treated cells only | – | –
6 | COc1cc([C@@H]2c3cc4c(cc3[C@@H](O[C@@H]3O[C@@H]5CO[C@@H](C)O[C@H]5[C@H](O)[C@H]3O)[C@H]3COC(=O)[C@H]23)OCO4)cc(OC)c1O [etoposide] | – | – | sensitivity of cells to the drug [4]: resistant; sensitivity of cells to the drug [5]: sensitive
7 | GQVGRQMIIGDDINR (GQVGRQAAIIGDDINR) [SEQ ID NO:58, reference compound] | – | no significant effect | –
